# Experiments:
# Assay type in all cases: in vivo
# Conditions in all cases: evaluated after 13 days
# [1] = test system: Echinochloa crus-galli (ECHCG); assay: Pre-emergence Test, Echinochloa crus-galli (ECHCG)
# [2] = test system: Amaranthus palmeri (AMAPA); assay: Post-emergence Test, Amaranthus palmeri (AMAPA); design: key: 5=81-100%, 4=61-80%, 3=41-60%, 2=21-40%, 1=0-20% damage
# In short: (§1)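 Scores are percentage plant damage on a 1–5 scale (1=0-20%, 2=21-40%, 3=41-60%, 4=61-80%, 5=81-100%), read 13 days after treatment. Pots received a spray at 1000 g/ha unless otherwise stated, formulated in acetone/water (50:50) containing 0.5% Tween 20.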
# [3] = test system: Echinochloa crus-galli (ECHCG); assay: Post-emergence Test, Echinochloa crus-galli (ECHCG); design: key to percentage damage caused to the plant, ECHCG (five-point scale): 5=81-100%, 4=61-80%, 3=41-60%, 2=21-40%, 1=0-20% damage
# In short: as §1
# Setaria faberi (SETFA) [4] = assay: Post-emergence Test, Setaria faberi (SETFA); design: key to percentage damage caused to the plant, SETFA (five-point scale): 5=81-100%, 4=61-80%, 3=41-60%, 2=21-40%, 1=0-20% damage
# In short: as §1
# Zea mays (ZEAMX) [5] = assay: Pre-emergence Test, Zea mays (ZEAMX)
# [6] = test system: Amaranthus retoflexus (AMARE); assay: Post-emergence Test, Amaranthus retoflexus (AMARE); design: key to percentage damage caused to the plant, AMARE (five-point scale): 5=81-100%, 4=61-80%, 3=41-60%, 2=21-40%, 1=0-20% damage
# In short: as §1
# Setaria faberi (SETFA) [7] = assay: Pre-emergence Test, Setaria faberi (SETFA)
# [8] = test system: Ipomoea hederacea (IPOHE); assay: Pre-emergence Test, Ipomoea hederacea (IPOHE)
# [9] = test system: Amaranthus retoflexus (AMARE); assay: Pre-emergence Test, Amaranthus retoflexus (AMARE)
# [10] = test system: Amaranthus palmeri (AMAPA); assay: Pre-emergence Test, Amaranthus palmeri (AMAPA)
# Zea mays (ZEAMX) [11] = assay: Post-emergence Test, Zea mays (ZEAMX); design: key to percentage damage caused to the plant, ZEAMX (five-point scale): 5=81-100%, 4=61-80%, 3=41-60%, 2=21-40%, 1=0-20% damage
# In short: as §1
# [12] = test system: Ipomoea hederacea (IPOHE); assay: Post-emergence Test, Ipomoea hederacea (IPOHE); design: key to percentage damage caused to the plant, IPOHE (five-point scale): 5=81-100%, 4=61-80%, 3=41-60%, 2=21-40%, 1=0-20% damage
# In short: as §1
SMILES,"Pre-emergence Test ECHCG, percentage damage caused to the plant (five-point scale) ([1]; 1000 g/ha)","percentage damage caused to the plant, AMAPA (five-point scale) ([2]; 250 g/Ha)","percentage damage caused to the plant, AMAPA (five-point scale) ([2]; 1000 g/ha)","percentage damage caused to the plant, ECHCG (five-point scale) ([3]; 250 g/Ha)","percentage damage caused to the plant, ECHCG (five-point scale) ([3]; 1000 g/ha)","percentage damage caused to the plant, SETFA (five-point scale) (Setaria faberi (SETFA) [4]; 250 g/Ha)","percentage damage caused to the plant, SETFA (five-point scale) (Setaria faberi (SETFA) [4]; 1000 g/ha)","Pre-emergence Test ZEAMX, percentage damage caused to the plant (five-point scale) (Zea mays (ZEAMX) [5]; 1000 g/ha)","percentage damage caused to the plant, AMARE (five-point scale) ([6]; 250 g/Ha)","percentage damage caused to the plant, AMARE (five-point scale) ([6]; 1000 g/ha)","Pre-emergence Test SETFA, percentage damage caused to the plant (five-point scale) (Setaria faberi (SETFA) [7]; 1000 g/ha)","Pre-emergence Test IPOHE, percentage damage caused to the plant (five-point scale) ([8]; 1000 g/ha)","Pre-emergence Test AMARE, percentage damage caused to the plant (five-point scale) ([9]; 1000 g/ha)","Pre-emergence Test AMAPA, percentage damage caused to the plant (five-point scale) ([10]; 1000 g/ha)","percentage damage caused to the plant, ZEAMX (five-point scale) (Zea mays (ZEAMX) [11]; 250 g/Ha)","percentage damage caused to the plant, ZEAMX (five-point scale) (Zea mays (ZEAMX) [11]; 1000 g/ha)","percentage damage caused to the plant, IPOHE (five-point scale) ([12]; 250 g/Ha)","percentage damage caused to the plant, IPOHE (five-point scale) ([12]; 1000 g/ha)","Pre-emergence Test ECHCG, percentage damage caused to the plant (five-point scale) ([1]; 250 g/Ha (*))","Pre-emergence Test ZEAMX, percentage damage caused to the plant (five-point scale) (Zea mays (ZEAMX) [5]; 250 g/Ha (*))",other results
"CCn1c(Cn2cncn2)cc(=O)c(C(=O)O)c1-c1ccc(Cl)c(Cl)c1 [Compound 49, 2-(3,4-dichlorophenyl)-1-ethyl-4-oxo-6-(1,2,4-triazol-1-ylmethyl)pyridine-3-carboxylic acid]",1 (1=0-20%),0,1 (1=0-20%),0,2 (2=21-40%),1 (1=0-20%),2 (2=21-40%),0,0,0,0,0,2 (2=21-40%),1 (1=0-20%),0,0,1 (1=0-20%),0,,,
"CCn1c(Cn2cnc([N+](=O)[O-])c2)cc(=O)c(C(=O)O)c1-c1ccc(Cl)c(Cl)c1 [Compound 50, 2-(3,4-dichlorophenyl)-1-ethyl-6-[(4-nitroimidazol-1-yl)methyl]-4-oxo-pyridine-3-carboxylic acid]",1 (1=0-20%),,3 (3=41-60%),,1 (1=0-20%),,2 (2=21-40%),0,,0,0,0,1 (1=0-20%),1 (1=0-20%),,1 (1=0-20%),,2 (2=21-40%),,,
"CCn1c(Cn2cc([N+](=O)[O-])c(C)n2)cc(=O)c(C(=O)O)c1-c1ccc(Cl)c(Cl)c1 [Compound 64, 2-(3,4-dichlorophenyl)-1-ethyl-6-[(3-methyl-4-nitro-pyrazol-1-yl)methyl]-4-oxo-pyridine-3-carboxylic acid]",,2 (2=21-40%),,3 (3=41-60%),,2 (2=21-40%),,,3 (3=41-60%),,,,,,1 (1=0-20%),,1 (1=0-20%),,0,0,"Pre-emergence Test SETFA, percentage damage caused to the plant (five-point scale) (Setaria faberi (SETFA) [7]; 250 g/Ha (*)): 2 (2=21-40%); Pre-emergence Test IPOHE, percentage damage caused to the plant (five-point scale) ([8]; 250 g/Ha (*)): 3 (3=41-60%); Pre-emergence Test AMARE, percentage damage caused to the plant (five-point scale) ([9]; 250 g/Ha (*)): 0; Pre-emergence Test AMAPA, percentage damage caused to the plant (five-point scale) ([10]; 250 g/Ha (*)): 1 (1=0-20%)"
"CCn1c(Cn2ncc3cnc(Cl)cc32)cc(=O)c(C(=O)O)c1-c1ccc(Cl)c(Cl)c1 [Compound 75, 6-[(6-chloropyrazolo[4,3-c]pyridin-1-yl)methyl]-2-(3,4-dichlorophenyl)-1-ethyl-4-oxo-pyridine-3-carboxylic acid]",,1 (1=0-20%),,1 (1=0-20%),,0,,,1 (1=0-20%),,,,,,0,,0,,1 (1=0-20%),0,"Pre-emergence Test SETFA, percentage damage caused to the plant (five-point scale) (Setaria faberi (SETFA) [7]; 250 g/Ha (*)): 1 (1=0-20%); Pre-emergence Test IPOHE, percentage damage caused to the plant (five-point scale) ([8]; 250 g/Ha (*)): 0; Pre-emergence Test AMARE, percentage damage caused to the plant (five-point scale) ([9]; 250 g/Ha (*)): 1 (1=0-20%); Pre-emergence Test AMAPA, percentage damage caused to the plant (five-point scale) ([10]; 250 g/Ha (*)): 1 (1=0-20%)"
